Source: patent US8221745B2 (Velico Medical, Inc., priority 2004, dated 2012)

Experiments:
[1] = tested on: differentiated monocytic cell line THP-1; assay: In vitro phagocytic assay: ingestion of chilled or room temperature human platelets by THP-1 cells; format: cell-based; settings: for inhibitory effect on chilled platelet phagocytosis (in words): phagocytes incubated in monosaccharide solutions at various concentrations; for inhibitory effect on RT platelet phagocytosis (in words): room temperature platelets
Procedure: CR3 expression was monitored by flow cytometry using a PE-conjugated anti-human CD11b/Mac-1 mAb. Undifferentiated or differentiated THP-1 cells (2×10^6/ml) were plated onto 24-well plates and allowed to adhere for 45 minutes at 37° C. The adherent undifferentiated or differentiated macrophages were activated by the addition of 15 ng/ml PMA for 15 min. CM-range-labeled, chilled or room temperature platelets (10^7/well), previously subjected to different treatments were added to the undifferentiated or differentiated phagocytes in Ca^2+- and Mg^2+-containing HBSS and incubated for 30 min at 37° C. Following the incubation period, the phagocyte monolayer was washed with HBSS for 3 times, and adherent platelets were removed by treatment with 0.05% trypsin/0.53 mM EDTA in HBSS at 37° C. for 5 min followed by 5 mM EDTA at 4° C. to detach the macrophages for flow cytometric analysis of adhesion or ingestion of platelets (Brown et al., 2000). […] CM-Orange-labeled platelets incubated with macrophages were resolved from the phagocytes according to their forward and side scatter properties. The macrophages were gated, 10,000 events acquired for each sample, and data analyzed with CELLQuest software (Becton Dickenson).
To analyze the effects of monosaccharides on platelet phagocytosis, phagocytes (differentiated monocytic cell line THP-1) were incubated in monosaccharide solutions at various concentrations, and the chilled or room temperature platelets were added. Values in the Figures are means±SD of 3-5 experiments comparing percentages of orange-positive monocytes containing ingested platelets incubated with RT or chilled platelets).

chilled human platelets = assay: FITC-WGA / S-WGA lectin binding to platelets by flow cytometry; format: cell-based; settings: chilled or room temperature human platelets; control nucleotides
Procedure: We then investigated whether wheat germ agglutinin (WGA), a lectin with specificity towards the terminal sugar (GlcNAc), binds more effectively to chilled platelets than to room temperature platelets. Washed, chilled or room temperature platelets were incubated with 2 μg/ml of FITC coupled WGA or FITC coupled succinyl-WGA for 30 min at room temperature and analyzed by flow cytometry.
To analyze whether removal of GlcNAc residues reduces the binding of WGA to the platelet surface, chilled and room temperature washed human platelets were treated with 100 U/ml β-Hex for 30 min at 37° C.

human platelets [2] = assay: RCA I lectin binding to platelets by flow cytometry; format: cell-based; settings: chilled or room temperature human platelets; control nucleotides
Murine platelets = assay: Immunolabeling and flow cytometry of chilled versus room temperature platelets (murine); format: cell-based; settings: mean±SD, n=3−4
Procedure: (§1) Washed murine or human platelets (2×10^6) were analyzed for surface expression of CD62P, CD61, or surface bound IgM and IgG after chilling or room temperature storage by staining with fluorophore-conjugated Abs (5 μg/ml) for 10 min at 37° C. Phosphatidylserine exposure by chilled or room temperature platelets was determined by resuspending 5 μl of platelets in 400 μl of HBSS containing 10 mM Ca^2+ with 10 μg/ml of FITC-conjugated annexin-V. As a positive control for PS exposure, platelet suspensions were stimulated with 1 μM A23187. Fibrinogen binding was determined by the addition of Oregon Green-fibrinogen for 20 min at room temperature. All platelet samples were analyzed immediately by flow cytometry. Platelets were gated by forward and side scatter characteristics.
(§2) The binding of fluorescently labeled antibodies or ligands against various receptors on chilled-rewarmed or room temperature human and murine platelets was measured by flow cytometry. The data are expressed as the ratio between the mean fluorophore bound to the surface of chilled versus room temperature platelets (mean±SD, n=3−4).

human platelets [3] = assay: Immunolabeling and flow cytometry of chilled versus room temperature platelets (human); format: cell-based; settings: mean±SD, n=3−4
Procedure: as §1, §2

[4] = mice lacking 2,3Sialyltransferase IV; cited from earlier work
[5] = tested on: platelet membrane glycoproteins; assay: Incorporation of 14C-labeled sugars into endogenous platelet glycoproteins (SDS-PAGE, autoradiography); format: biochemical, human; settings: intact non-lysed platelets
Procedure: Transfer of sialic acids to endogenous glycoproteins by platelet sialyltransferase activity was tested in two ways. […] Intact platelets suspended in buffer (140 mM NaCl, 3 mM KCl, 0.5 mM MgCl2, 5 mM NaHCO3, 10 mM Hepes, pH 7.4) were used to assess the capacity of surface exposed sialyltransferase activity to transfer to platelet membrane glycoproteins. […] Thus, it was possible to use three different glycan modification strategies: addition of 1) UDP-[^14C]-galactose, 2) UDP-[^14C]-galactose and CMP-[^14C]-sialic acid, and 3) CMP-[^14C]-sialic acid alone. The incorporation of radioactive sugar nucleotides were monitored by SDS-PAGE chromatography followed by autoradiography.
The incorporation of radioactive carbohydrate sialic acid in endogenous platelet acceptor proteins was evaluated by incubating either detergent lysed platelets or non-lysed platelets with CMP-[^14C]-sialic. The incorporation ^14C-sialic acid was monitored by SDS-PAGE chromatography of the glycosylation mixture followed by autoradiography. Briefly, human apheresis platelets were washed and resuspended in resuspension buffer (40 mM NaCl, 3 mM KCl, 0.5 mM MgCl2, 5 mM NaHCO3, 10 mM Hepes, pH 7.4) and split in two fractions. One fraction was incubated with addition of CMP-[^14C]-sialic acid at 37° C. for 60 minutes. […]

In the case of `O=C[C@H](O)[C@@H](O)[C@@H](O)[C@H](O)CO` [D-(+)-galactose], the “% inhibition phagocytosis” value ([1]; chilled platelets, monosaccharide 100 mM) is reported as “did not significantly inhibit”.

With `O=C[C@@H](O)[C@@H](O)[C@H](O)[C@H](O)CO` [D-(+)-mannose] the “inhibitory effect on chilled platelet phagocytosis (in words)” value ([1]; chilled platelets) was “no inhibitory effect” and the “inhibitory effect on RT platelet phagocytosis (in words)” value [1] was “no inhibitory effect”.

For `CC(=O)N[C@H]1C(O)O[C@H](CO)[C@@H](O)[C@@H]1O` (stereo partly drawn) [GlcNac, N-acetyl-D-glucosamine], the “inhibition of chilled platelet phagocytosis (in words)” value ([1]; 25 to 200 mM) was “significantly inhibited”.

For `CO[C@H]1O[C@H](CO)[C@@H](O)[C@H](O)[C@H]1O` [Methyl-α-D-glucopyranoside], the “inhibitory effect on chilled platelet phagocytosis (in words)” value ([1]; chilled platelets) was “did not have an inhibitory effect”.

For `CO[C@H]1O[C@H](CO)[C@@H](O)[C@H](O)[C@@H]1O` [Methyl-α-D-mannopyranoside], the “inhibitory effect on chilled platelet phagocytosis (in words)” value ([1]; chilled platelets) was “no inhibitory effect” and the “inhibitory effect on RT platelet phagocytosis (in words)” value [1] was “no inhibitory effect”.

In the case of `COC1OC(CO)C(O)C(O)C1O` [Methyl-β-D-gludopyranoside], the “inhibitory effect on chilled platelet phagocytosis (in words)” value ([1]; chilled platelets) is reported as “inhibited phagocytosis in a dose-dependent manner”.

For `CO[C@@H]1O[C@H](CO)[C@@H](O)[C@H](O)[C@@H]1O` [Methyl-β-D-mannopyranoside], the “inhibitory effect on chilled platelet phagocytosis (in words)” value ([1]; chilled platelets) was “no inhibitory effect” and the “inhibitory effect on RT platelet phagocytosis (in words)” value [1] was “no inhibitory effect”.

With `O=c1ccn([C@@H]2O[C@H](COP(=O)(O)OP(=O)(O)O)[C@@H](O)[C@H]2O)c(=O)[nH]1` [UDP] the “effect on S-WGA binding” value (chilled human platelets) was “no effect” and the “effect on RCA I binding” value (human platelets [2]) was “no effect”.

With `CC(=O)N[C@@H]1[C@@H](O)[C@H](O)[C@@H](CO)O[C@H]1O` [β-GlcNac] the “inhibition of the phagocytosis of chilled platelets” value ([1]; 10 μM) was 80% and the “inhibitory effect on chilled platelet phagocytosis (in words)” value ([1]; chilled platelets) was “strongly inhibited”.

For “annexin V: FITC-conjugated annexin-V, ligand for phosphatidylserine exposure”, the “Binding ratio 4° C.:22° C.” value (Murine platelets) was 1.04 ± 0.02 and the “Binding ratio 4° C.:22° C.” value (human platelets [3]) was 0.95 ± 0.09.

For asialofetuin, the platelet count [4] is listed as “corrects the platelet count”.

With “cytidine monophospho-N-acetylneuraminic acid [CMP-sialic acid]” the “incorporation of radioactive sugar into platelet membrane glycoproteins” value [5] was “high level of incorporation”.

For fibrinogen, the “Binding ratio 4° C.:22° C.” value (Murine platelets) was 1.06 ± 0.06 and the “Binding ratio 4° C.:22° C.” value (human platelets [3]) was 1.05 ± 0.10.
